According to patent publication US20250002507A1, “7,8-DIHYDRO-5H-1,6-NAPHTHYRIDINE DERIVATIVES AS POSITIVE ALLOSTERIC MODULATORS OF THE MUSCARINIC ACETYLCHOLINE RECEPTOR M4 FOR TREATING NEUROLOGICAL AND PSYCHIATRIC DISORDERS” (Vanderbilt University, priority 2021, published 2025):

Biological target: T1, Human M4 (Homo sapiens, UniProt P08173)
T1 construct: expressed in transfected cells
T1 sequence (P08173 1-479): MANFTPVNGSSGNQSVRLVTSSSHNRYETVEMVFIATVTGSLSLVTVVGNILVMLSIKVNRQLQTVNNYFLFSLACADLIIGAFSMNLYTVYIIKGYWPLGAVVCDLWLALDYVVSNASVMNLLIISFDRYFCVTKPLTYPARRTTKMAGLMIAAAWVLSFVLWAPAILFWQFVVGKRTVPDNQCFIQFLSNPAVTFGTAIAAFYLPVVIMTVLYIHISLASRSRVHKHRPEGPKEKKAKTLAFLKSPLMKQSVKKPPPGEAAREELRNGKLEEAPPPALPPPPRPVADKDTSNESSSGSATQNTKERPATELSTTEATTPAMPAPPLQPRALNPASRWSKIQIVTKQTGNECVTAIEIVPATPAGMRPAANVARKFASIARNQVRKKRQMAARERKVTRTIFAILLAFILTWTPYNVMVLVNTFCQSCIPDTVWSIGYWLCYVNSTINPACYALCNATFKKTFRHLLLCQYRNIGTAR
Experiment: mAChR M4 cell-based functional assay (calcium flux, potentiation of EC20 acetylcholine response), hM4-Gqi5 CHO-K1 cells
Details: for Emax at 30 µM: CHO-K1, Human M4, % ACh maximum at 30 μM, read-out: Emax (% ACh maximum at 30 μM); for Emax at 30 µM / EC50: Table 3; for EC50: potentiation of EC20 acetylcholine response, calcium flux, CHO-K1 cells, read-out: Human M4 EC50
Method in brief: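 Positive allosteric modulation was scored as a concentration-dependent rise in the response to an EC20 dose of acetylcholine, added 144 s after the compound. Human M4-Gqi5 CHO-K1 cells carried Fluo-4 dye, and compounds ran as 11-point, 3-fold dilution series. EC50 and Emax came from four-parameter logistic fits of the FDSS fluorescence-ratio traces.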

Compound	Emax at 30 µM [%]	EC50 [nM]	Emax (CHO-K1, read-out: Emax (% ACh maximum at 30 μM)) [%]
Cc1cc2nncn2nc1N1CCc2ncc(-c3ccc(C(F)(F)F)nc3)cc2C1 [Compound 196, 6-(7-methyl-[1,2,4]triazolo[4,3-b]pyridazin-6-yl)-3-(6-(trifluoromethyl)pyridin-3-yl)-5,6,7,8-tetrahydro-1,6-naphthyridine]	80	708	
Cc1cc2nncn2nc1N1CCc2ncc(-c3ccc(C4CC4)nc3)cc2C1 [Compound 197, 3-(6-cyclopropylpyridin-3-yl)-6-(7-methyl-[1,2,4]triazolo[4,3-b]pyridazin-6-yl)-5,6,7,8-tetrahydro-1,6-naphthyridine]	82	176	
Cc1ccc(-c2cnc3c(c2)CN(c2nn4cnnc4cc2C)CC3)cn1 [Compound 198, 6-(7-methyl-[1,2,4]triazolo[4,3-b]pyridazin-6-yl)-3-(6-methylpyridin-3-yl)-5,6,7,8-tetrahydro-1,6-naphthyridine]	93	206	
Cc1cc2nncn2nc1N1CCc2ncc(-c3cccnc3)cc2C1 [Compound 199, 6-(7-methyl-[1,2,4]triazolo[4,3-b]pyridazin-6-yl)-3-(pyridin-3-yl)-5,6,7,8-tetrahydro-1,6-naphthyridine]	84	334	
Cc1c(N2CCc3ncc(C4CC4)cc3C2)nn2cnnc2c1C [Compound 200, 3-cyclopropyl-6-(7,8-dimethyl-[1,2,4]triazolo[4,3-b]pyridazin-6-yl)-5,6,7,8-tetrahydro-1,6-naphthyridine]	93	53	
Cc1c(N2CCc3ncc(Nc4ccnn4C)cc3C2)nn2c(C(F)(F)F)nnc2c1C [Compound 201, 6-(7,8-dimethyl-3-(trifluoromethyl)-[1,2,4]triazolo[4,3-b]pyridazin-6-yl)-N-(1-methyl-1H-pyrazol-5-yl)-5,6,7,8-tetrahydro-1,6-naphthyridin-3-amine]	94	63	
COc1ccc(-c2cnc3c(c2)CN(c2nn4cnnc4cc2C)CC3)cn1 [Compound 202, 3-(6-methoxypyridin-3-yl)-6-(7-methyl-[1,2,4]triazolo[4,3-b]pyridazin-6-yl)-5,6,7,8-tetrahydro-1,6-naphthyridine]	95	227	
Cc1cc2nncn2nc1N1CCc2ncc(Nc3nsc4ncccc34)cc2C1 [Compound 203, N-(6-(7-methyl-[1,2,4]triazolo[4,3-b]pyridazin-6-yl)-5,6,7,8-tetrahydro-1,6-naphthyridin-3-yl)isothiazolo[5,4-b]pyridin-3-amine]	35	82	
Cc1cc2nncn2nc1N1CCc2ncc(Nc3nn(C)c4ccccc34)cc2C1 [Compound 204, N-(1-methyl-1H-indazol-3-yl)-6-(7-methyl-[1,2,4]triazolo[4,3-b]pyridazin-6-yl)-5,6,7,8-tetrahydro-1,6-naphthyridin-3-amine]	62	3550	
Cc1cc2nncn2nc1N1CCc2ncc(Nc3csc4ncccc34)cc2C1 [Compound 205, N-(6-(7-methyl-[1,2,4]triazolo[4,3-b]pyridazin-6-yl)-5,6,7,8-tetrahydro-1,6-naphthyridin-3-yl)thieno[2,3-b]pyridin-3-amine]	65	477	
Cc1cc2nncn2nc1N1CCc2ncc(N3CCCn4nccc43)cc2C1 [Compound 206, 3-(6,7-dihydropyrazolo[1,5-a]pyrimidin-4(5H)-yl)-6-(7-methyl-[1,2,4]triazolo[4,3-b]pyridazin-6-yl)-5,6,7,8-tetrahydro-1,6-naphthyridine]	96	53	
Cc1c(N2CCc3ncc(-c4ccc(N5CCCC5)nc4)cc3C2)nn2cnnc2c1C [Compound 207, 6-(7,8-dimethyl-[1,2,4]triazolo[4,3-b]pyridazin-6-yl)-3-(6-(pyrrolidin-1-yl)pyridin-3-yl)-5,6,7,8-tetrahydro-1,6-naphthyridine]	73	401	
Cc1c(N2CCc3ncc(-c4ccc(N5CC6(C5)CC(F)(F)C6)nc4)cc3C2)nn2cnnc2c1C [Compound 208, 3-(6-(6,6-difluoro-2-azaspiro[3.3]heptan-2-yl)pyridin-3-yl)-6-(7,8-dimethyl-[1,2,4]triazolo[4,3-b]pyridazin-6-yl)-5,6,7,8-tetrahydro-1,6-naphthyridine]	96	463	
Cc1c(N2CCc3ncc(N4CCCn5nccc54)cc3C2)nn2cnnc2c1C [Compound 209, 3-(6,7-dihydropyrazolo[1,5-a]pyrimidin-4(5H)-yl)-6-(7,8-dimethyl-[1,2,4]triazolo[4,3-b]pyridazin-6-yl)-5,6,7,8-tetrahydro-1,6-naphthyridine]	99	71	
Cc1c(N2CCc3ncc(Nc4nn(C)c5ccccc45)cc3C2)nn2cnnc2c1C [Compound 210, 6-(7,8-dimethyl-[1,2,4]triazolo[4,3-b]pyridazin-6-yl)-N-(1-methyl-1H-indazol-3-yl)-5,6,7,8-tetrahydro-1,6-naphthyridin-3-amine]	69	900	
Cc1cc(Nc2cnc3c(c2)CN(c2nn4cnnc4c(C)c2C)CC3)n(CCC(C)C)n1 [Compound 211, 6-(7,8-dimethyl-[1,2,4]triazolo[4,3-b]pyridazin-6-yl)-N-(1-isopentyl-3-methyl-1H-pyrazol-5-yl)-5,6,7,8-tetrahydro-1,6-naphthyridin-3-amine]	38	4120	
Cc1cc(Nc2cnc3c(c2)CN(c2nn4cnnc4c(C)c2C)CC3)n(CC(C)C)n1 [Compound 212, 6-(7,8-dimethyl-[1,2,4]triazolo[4,3-b]pyridazin-6-yl)-N-(1-isobutyl-3-methyl-1H-pyrazol-5-yl)-5,6,7,8-tetrahydro-1,6-naphthyridin-3-amine]	41	5410	
CCCCn1nc(C)cc1Nc1cnc2c(c1)CN(c1nn3cnnc3c(C)c1C)CC2 [Compound 213, N-(1-butyl-3-methyl-1H-pyrazol-5-yl)-6-(7,8-dimethyl-[1,2,4]triazolo[4,3-b]pyridazin-6-yl)-5,6,7,8-tetrahydro-1,6-naphthyridin-3-amine]	52	2480	
Cc1cc(Nc2cnc3c(c2)CN(c2nn4cnnc4c(C)c2C)CC3)n(C(C)C)n1 [Compound 214, 6-(7,8-dimethyl-[1,2,4]triazolo[4,3-b]pyridazin-6-yl)-N-(1-isopropyl-3-methyl-1H-pyrazol-5-yl)-5,6,7,8-tetrahydro-1,6-naphthyridin-3-amine]	45	5500	
Cc1c(N2CCc3ncc(-c4ccc(N5CCC(F)(F)CC5)nc4)cc3C2)nn2cnnc2c1C [Compound 215, 3-(6-(4,4-difluoropiperidin-1-yl)pyridin-3-yl)-6-(7,8-dimethyl-[1,2,4]triazolo[4,3-b]pyridazin-6-yl)-5,6,7,8-tetrahydro-1,6-naphthyridine]	86	351	
Cc1c(N2CCc3ncc(-c4ccc(N5CCCC(F)C5)nc4)cc3C2)nn2cnnc2c1C (stereo not drawn) [Compound 216, 6-(7,8-dimethyl-[1,2,4]triazolo[4,3-b]pyridazin-6-yl)-3-(6-(3-fluoropiperidin-1-yl)pyridin-3-yl)-5,6,7,8-tetrahydro-1,6-naphthyridine]	82	224	
Cc1c(N2CCc3ncc(-c4ccc(N5CCC5)nc4)cc3C2)nn2cnnc2c1C [Compound 217, 3-(6-(azetidin-1-yl)pyridin-3-yl)-6-(7,8-dimethyl-[1,2,4]triazolo[4,3-b]pyridazin-6-yl)-5,6,7,8-tetrahydro-1,6-naphthyridine]	83	223	
Cc1c(N2CCc3ncc(C(C)C)cc3C2)nn2cnnc2c1C [Compound 218, 6-(7,8-dimethyl-[1,2,4]triazolo[4,3-b]pyridazin-6-yl)-3-isopropyl-5,6,7,8-tetrahydro-1,6-naphthyridine]	89	186	
Cc1c(N2CCc3ncc(C(C)(C)O)cc3C2)nn2c(C(F)(F)F)nnc2c1C [Compound 219, 2-(6-(7,8-dimethyl-3-(trifluoromethyl)-[1,2,4]triazolo[4,3-b]pyridazin-6-yl)-5,6,7,8-tetrahydro-1,6-naphthyridin-3-yl)propan-2-ol]	81	906	
Cc1c(N2CCc3ncc(O)cc3C2)nn2cnnc2c1C [Compound 220, 6-(7,8-dimethyl-[1,2,4]triazolo[4,3-b]pyridazin-6-yl)-5,6,7,8-tetrahydro-1,6-naphthyridin-3-ol]		1370	81
Cc1c(N2CCc3ncc(OCC(C)C)cc3C2)nn2cnnc2c1C [Compound 221, 6-(7,8-dimethyl-[1,2,4]triazolo[4,3-b]pyridazin-6-yl)-3-isobutoxy-5,6,7,8-tetrahydro-1,6-naphthyridine]	76	588	
Cc1c(N2CCc3ncc(C4CC4)cc3C2)nn2c(C(F)(F)F)nnc2c1C [Compound 222, 3-cyclopropyl-6-(7,8-dimethyl-3-(trifluoromethyl)-[1,2,4]triazolo[4,3-b]pyridazin-6-yl)-5,6,7,8-tetrahydro-1,6-naphthyridine]	83	88	
